Values of other authors in patent EP1530463B1, “L-ARGININE CONTAINING PHARMACEUTICAL COMPOSITION” (Vasopharm Biotech GmbH, priority 2002, dated 2004).
Read-outs that look alike come from different tables or passages of the source.

Row | Compound | pKa (organic acid) | pKa (guanidino group)
1 | O=C1O[C@H]([C@@H](O)CO)C(O)=C1O [ascorbic acid] | 4.17 | 
2 | N=C(N)NCCC[C@H](N)C(=O)O [L-arginine] |  | 12.48
